Numbered stars: 1 amine (or outer) side, 2 acyl side, 3 side chain; on linkers, the order of the positions; unused ones are H or OH. Square brackets hold non-standard residues; d marks the D form. Peptide text beside a SMILES is read from it. * marks the point of attachment. DOTA = O=C(O)CN1CCN(CC(=O)O)CCN(CC(=O)*)CCN(CC(=O)O)CC1; NMeH = CN[C@@H](Cc1c[nH]cn1)C(=O)O; X1 = O=C(CN1CCC(N[*:1])CC1)[*:2]; Tle = CC(C)(C)[C@H](N)C(=O)O; Thz = O=C(O)[C@@H]1CSCN1
Legend:
[1] = Ex vivo biodistribution in PC-3 tumor-bearing mice; details: mouse; for tissue uptake at 120 h: 120 h post-injection; for tissue uptake at 4 h: 4 h post-injection; for tissue uptake at 24 h: 24 h post-injection; for tissue uptake at 72 h: 72 h post-injection
Protocol: (§1) SPECT/CT imaging experiments were performed using an MILabs (Houten, The Netherlands) U-SPECT-II/CT scanner with a custom-made ultra-high-sensitivity big mouse collimator (2 mm pinhole size) following previously reported procedures. […] Male NOD.Cg-Rag1^tm1Mom Il2rg^tm1Wjl/SzJ (NRG) mice were used in these experiments because of their immunodeficient characteristics and excellent radiation tolerance. Mice were anaesthetized and subcutaneously implanted with 5 × 10^6 PC-3 prostate cancer cells (100 µL; 1:1 PBS/Matrigel) behind the left shoulder. SPECT/CT imaging and biodistribution studies were performed once the tumors reached a diameter of 5–8 mm, typically after approximately 4 weeks of growth.
(§2) For ex vivo biodistribution studies, the mice were injected with ~2–6 MBq of the radioligand. […] Blocking study was conducted at 1 h post-injection via co-injection of the radioligand with 100 μg of [D-Phe^6,Leu-NHEt^13,des-Met^14]Bombesin(6–14). Organs/tissues of interested were collected, weighed, and measured using an automatic gamma counter.

PC-3 tumor-bearing mice = assay: Ex vivo biodistribution in PC-3 tumor-bearing mice
Protocol: as §1, §2

[2] = large intestine, Uptake in large intestine
[3] = small intestine, Uptake in small intestine
[4] = 1 h blocked (co-injected with 100 µg [D-Phe6,Leu-NHEt13,des-Met14]Bombesin(6-14))
[5] = 1 h post-injection, 100 µg [D-Phe6,Leu-NHEt13,des-Met14]Bombesin(6–14)

tissue uptake at 120 h ([1]; kidneys, Uptake in kidneys): 0.3 ± 0.07 %ID/g
tissue uptake at 1 h ([1]; large intestine, 100 ug, Uptake in large intestine, 1 h blocked (co-injected with 100 µg [D-Phe6,Leu-NHEt13,des-Met14]Bombesin(6-14))): 0.31 ± 0.08 %ID/g
tissue uptake at 4 h [1, 2]: 0.81 ± 0.21 %ID/g
tissue uptake at 24 h [1, 2]: 0.3 ± 0.12 %ID/g
tissue uptake at 72 h [1, 2]: 0.13 ± 0.05 %ID/g
tissue uptake at 120 h [1, 2]: 0.07 ± 0.04 %ID/g
tissue uptake at 1 h ([1]; liver, 100 ug, Uptake in liver, 1 h blocked (co-injected with 100 µg [D-Phe6,Leu-NHEt13,des-Met14]Bombesin(6-14))): 0.57 ± 0.15 %ID/g
tissue uptake at 4 h ([1]; liver, Uptake in liver): 0.33 ± 0.05 %ID/g
tissue uptake at 24 h ([1]; liver, Uptake in liver): 0.28 ± 0.07 %ID/g
tissue uptake at 120 h ([1]; liver, Uptake in liver): 0.08 ± 0.02 %ID/g
tissue uptake at 1 h ([1]; lungs, Uptake in lungs, 1 h post-injection): 1.53 ± 0.19 %ID/g
tissue uptake at 4 h ([1]; lungs, Uptake in lungs): 0.57 ± 0.21 %ID/g
tissue uptake at 24 h ([1]; lungs, Uptake in lungs): 0.16 ± 0.08 %ID/g
tissue uptake at 72 h ([1]; lungs, Uptake in lungs): 0.03 ± 0.01 %ID/g
tissue uptake at 120 h ([1]; lungs, Uptake in lungs): 0.03 ± 0.01 %ID/g
tissue uptake at 1 h ([1]; muscle, 100 ug, Uptake in muscle, 1 h blocked (co-injected with 100 µg [D-Phe6,Leu-NHEt13,des-Met14]Bombesin(6-14))): 0.23 ± 0.11 %ID/g
tissue uptake at 1 h ([1]; muscle, Uptake in muscle, 1 h post-injection): 0.22 ± 0.04 %ID/g
tissue uptake at 4 h ([1]; muscle, Uptake in muscle): 0.03 ± 0.01 %ID/g
tissue uptake at 24 h ([1]; muscle, Uptake in muscle): 0.01 %ID/g
tissue uptake at 72 h ([1]; muscle, Uptake in muscle): 0.01 %ID/g
tissue uptake at 1 h ([1]; pancreas, 100 ug, Uptake in pancreas, 1 h blocked (co-injected with 100 µg [D-Phe6,Leu-NHEt13,des-Met14]Bombesin(6-14))): 1.88 ± 0.42 %ID/g
tissue uptake at 4 h ([1]; pancreas, Uptake in pancreas): 1.57 ± 0.28 %ID/g
tissue uptake at 24 h ([1]; pancreas, Uptake in pancreas): ~1 %ID/g
tissue uptake at 72 h ([1]; pancreas, Uptake in pancreas): 0.68 ± 0.1 %ID/g
tissue uptake at 120 h ([1]; pancreas, Uptake in pancreas): 0.48 ± 0.08 %ID/g
tissue uptake at 1 h ([1]; small intestine, 100 ug, Uptake in small intestine, 1 h blocked (co-injected with 100 µg [D-Phe6,Leu-NHEt13,des-Met14]Bombesin(6-14))): 0.54 ± 0.1 %ID/g
tissue uptake at 1 h ([1]; small intestine, Uptake in small intestine, 1 h post-injection): 1.32 ± 0.42 %ID/g
tissue uptake at 4 h [1, 3]: 0.29 ± 0.08 %ID/g
tissue uptake at 24 h [1, 3]: 0.14 ± 0.03 %ID/g
tissue uptake at 72 h [1, 3]: 0.05 ± 0.01 %ID/g
tissue uptake at 120 h [1, 3]: 0.02 ± 0.02 %ID/g
tissue uptake at 1 h ([1]; spleen, 100 ug, Uptake in spleen, 1 h blocked (co-injected with 100 µg [D-Phe6,Leu-NHEt13,des-Met14]Bombesin(6-14))): 0.4 ± 0.04 %ID/g
tissue uptake at 24 h ([1]; spleen, Uptake in spleen): 0.14 ± 0.05 %ID/g
tissue uptake at 72 h ([1]; spleen, Uptake in spleen): 0.09 ± 0.02 %ID/g
tissue uptake at 120 h ([1]; spleen, Uptake in spleen): 0.09 ± 0.02 %ID/g
tissue uptake at 1 h ([1]; stomach, Uptake in stomach, 1 h post-injection): 0.6 ± 0.24 %ID/g
tissue uptake at 4 h ([1]; stomach, Uptake in stomach): 0.11 ± 0.04 %ID/g
tissue uptake at 24 h ([1]; stomach, Uptake in stomach): 0.16 ± 0.07 %ID/g
tissue uptake at 120 h ([1]; stomach, Uptake in stomach): 0.02 ± 0.01 %ID/g
tissue uptake at 1 h ([1]; testes, 100 ug, Uptake in testes, 1 h blocked (co-injected with 100 µg [D-Phe6,Leu-NHEt13,des-Met14]Bombesin(6-14))): 0.48 ± 0.16 %ID/g
tissue uptake at 4 h ([1]; testes, Uptake in testes): 0.05 ± 0.01 %ID/g
tissue uptake at 24 h ([1]; testes, Uptake in testes): 0.03 ± 0.01 %ID/g
tissue uptake at 72 h ([1]; testes, Uptake in testes): 0.02 %ID/g
tissue uptake at 120 h ([1]; testes, Uptake in testes): 0.01 %ID/g
Uptake in lungs (PC-3 tumor-bearing mice; [4]): 1.06 ± 0.27 %ID/g
Uptake in stomach (PC-3 tumor-bearing mice; [4]): 0.17 ± 0.06 %ID/g
Uptake in bone (PC-3 tumor-bearing mice; 1 h post-injection): 0.15 ± 0.03 %ID/g
Uptake in kidneys (PC-3 tumor-bearing mice; 1 h post-injection): 6.86 ± 0.81 %ID/g
Uptake in large intestine (PC-3 tumor-bearing mice; 1 h post-injection): 0.76 ± 0.16 %ID/g
Uptake in liver (PC-3 tumor-bearing mice; 1 h post-injection): 0.71 ± 0.08 %ID/g
Uptake in pancreas (PC-3 tumor-bearing mice; 1 h post-injection): 4.45 ± 0.83 %ID/g
Uptake in spleen (PC-3 tumor-bearing mice; 1 h post-injection): 0.47 ± 0.07 %ID/g
Uptake in testes (PC-3 tumor-bearing mice; 1 h post-injection): 0.32 ± 0.18 %ID/g
Uptake in heart (PC-3 tumor-bearing mice; 4 h post-injection): 0.06 ± 0.01 %ID/g
Uptake in kidneys (PC-3 tumor-bearing mice; 4 h post-injection): 5.51 ± 0.54 %ID/g
Uptake in spleen (PC-3 tumor-bearing mice; 4 h post-injection): 0.17 ± 0.04 %ID/g
Uptake in pancreas (PC-3 tumor-bearing mice; 24 h post-injection): 1.06 ± 0.26 %ID/g
Uptake in liver (PC-3 tumor-bearing mice; 72 h post-injection): 0.12 ± 0.03 %ID/g
Uptake in stomach (PC-3 tumor-bearing mice; 72 h post-injection): 0.10 ± 0.05 %ID/g
Uptake in adrenal glands (PC-3 tumor-bearing mice; 120 h post-injection): 0.17 ± 0.09 %ID/g
uptake in PC-3 tumor xenografts cleared within 24 h (PC-3 tumor-bearing mice; relative to 1 h uptake): 47%
SMILES: CC(C)C[C@H](NC(=O)[C@H](Cc1cnc[nH]1)N(C)C(=O)CNC(=O)[C@@H](NC(=O)[C@H](C)NC(=O)[C@H](Cc1c[nH]c2ccccc12)NC(=O)[C@H](Cc1c[nH]cn1)NC(=O)[C@@H](Cc1ccccc1)NC(=O)CN1CCC(NC(=O)CN2CCN(CC(=O)O)CCN(CC(=O)O)CCN(CC(=O)O)CC2)CC1)C(C)(C)C)C(=O)N1CSC[C@H]1C(N)=O [[^177Lu]Lu-LW01142, metal not drawn] ({DOTA}-[X1][dF]HWA[Tle]G[NMeH]L[Thz]-NH2)
reduction of average pancreas uptake by co-injection of blocker (PC-3 tumor-bearing mice; [5]): 58%
reduction of average tumor uptake by co-injection of blocker (PC-3 tumor-bearing mice; [5]): 62%

From article PMC12030706, “Novel ^177Lu-Labeled [Thz^14]Bombesin(6–14) Derivatives with Low Pancreas Accumulation for Targeting Gastrin-Releasing Peptide Receptor-Expressing Cancer” (Pharmaceuticals, 2025)
